The target in one assay is T1, fluorescein-streptavidin (Streptomyces avidinii, UniProt P22629).
T1 construct: purchased Calbiochem-Novabiochem Corp., La Jolla, Calif; 189734
Description: Standard protein-binding assay: fluorescein-streptavidin binding to linker on streptavidin-coated 96-well plates. The conditions noted are these: for Fluorescence emission detected (qualitative): linker and fluorescein-labeled protein present. From the text:
(§1) Referring to the drawings, and particularly to FIG. 1, generic reactions illustrating two variations of the screening system of the present invention are shown. FIGS. 1a-1d illustrate the generic System 1 reaction wherein a compound comprised of a tether connecting biotin with a chemical compound containing a nitrophenyl group is applied to a streptavidin coated solid phase. The amount of fluorescein-protein complex (c), where the exemplary protein is fluorescein-anti-DNP antibody, bound to the biotin-tether-nitrophenyl complex is characterized by detecting the magnitude of fluorescence emission in each individual well at the completion of the reaction. Similarly, FIG. 1e-1h illustrates the generic System 2 reaction wherein a tether connects 2 biotin groups together and streptavidin is coated on the solid phase. As in the System 1 reaction, the amount of fluorescein-protein complex (g), where the exemplary protein is fluorescein-streptavidin, bound to the biotin-tether-biotin complex is characterized through the detection of fluorescence emissions in each individual well at the completion of the reaction.
In the quantification of the interaction between fluoresceinated-proteins and linkers is characterized by detecting the magnitude of fluorescence emissions in each individual well at the completion of standard protein-binding assay procedures.
(§2) A standard protein-binding assay comprises a multi-step process in which strepeavidin pre-treated 96-well plates are exposed to a solution containing linker followed by exposure to a solution containing fluorescein-labeled protein. The 96-well plates are coated with a commercially available streptavidin solution (cat #BPS00100; Xenopore Corp., Hawthorne, N.J.) and then pre-incubated with 300 μl PBS buffer for 10 minutes at room temperature. To complete the pre-incubation process, the PBS buffer is discarded and the plates are further washed five times with water. Once the plate is sufficiently washed, add to the wells 100 μl of pre-mixed binding buffer containing the desired linker, the preparation of which is as described above. After addition of the linker solution, the plate is incubated at 37° C. for one hour. Upon completion of incubation, the linker solution is discarded and the plate is washed with five changes of water. For the fifth step of the assay process, 100 μl of a premixed reaction solution containing 1 M Tris, 0.5 M NaCl and the fluorescein-labeled proteins are added to selected wells of the plate with bound linker. The fluorescein conjugated proteins, anti-dinitrophenyl antibody (rabbit IgG fraction, cat #A-6423) (anti-DNP) and streptavidin (cat #189734) are commercially available from Molecular Probes, Inc., Eugene, Oreg. and Calbiochem Inc., San Diego, Calif. Upon addition of the protein solutions, the plate is further incubated at 37° C. for one hour. Following the incubation period, the reacting solution in each well is discarded and the wells are washed with five changes of 1 M Tris or 30 changes of water. After this final washing step, 250 μl of elution buffer containing 0.5 mM NaOH, methanol and 20 mM EDTA is added to each well and the plate is read using a Spectra MAX Gemini fluorescein plate reader (Molecular Devices Corp., Sunnyvale, Calif.).
Using the standard protein-binding assay described above, linkers 1-7 are evaluated for their ability to bind fluorescein-streptavidin or fluorescein-anti-DNP. The detection of fluorescence emission beyond that of the control would indicate that the fluorescein labeled protein has bound to the corresponding linker. Lack of fluorescence emission would indicate that either the linker or the fluorescein-bound proteins are absent, or that an improper linker was used. This may be interpreted as meaning that the protein of interest, in this exemplary example streptavidin or anti-DNP, “recognizes” the particular library compound being used in the experiment. […]

Assay [1] concerns fluorescein-anti-DNP antibody (rabbit IgG fraction). The assay can be described thus: Standard protein-binding assay: fluorescein-anti-DNP binding to linker on streptavidin-coated 96-well plates.
Excerpt: as §1, §2
Using the standard protein-binding assay described above, linkers 1-7 are evaluated for their ability to bind fluorescein-streptavidin or fluorescein-anti-DNP. The detection of fluorescence emission beyond that of the control would indicate that the fluorescein labeled protein has bound to the corresponding linker. Lack of fluorescence emission would indicate that either the linker or the fluorescein-bound proteins are absent, or that an improper linker was used. This may be interpreted as meaning that the protein of interest, in this exemplary example streptavidin or anti-DNP, “recognizes” the particular library compound being used in the experiment. It is this “recognition” that constitutes the use of these plate libraries as “affinity probes”. While preliminary test results are reported for all of the tested linkers, particular emphasis will be on the data derived from testing of linkers 3 and 5. […]

T1 sequence (P22629 25-183): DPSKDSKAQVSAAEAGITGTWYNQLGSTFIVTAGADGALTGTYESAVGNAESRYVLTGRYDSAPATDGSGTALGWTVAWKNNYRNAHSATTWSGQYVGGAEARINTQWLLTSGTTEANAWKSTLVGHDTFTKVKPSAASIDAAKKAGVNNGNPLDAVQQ

Regarding `O=C(CCCCC1SCC2NC(=O)NC21)NCCCOCCOCCOCCCNC(=O)CCCCC1SCC2NC(=O)NC21` (stereo not shown) [Linker 1], the “Fluorescence emission detected (qualitative)” value (shortened to “Fluorescence emission detected”) at fluorescein-streptavidin is “No fluorescence emission was detected”.
For the molecule `O=C(CCCCCNC(=O)CCCCC1SCC2NC(=O)NC21)NCCCCCNC(=O)CCCCCNC(=O)CCCCC1SCC2NC(=O)NC21` (stereo not shown) [Linker 2], the Fluorescence emission on fluorescein-streptavidin (Linker 2 62.5 nmol, no streptavidin-fluorescein (control)) is listed as 583; on fluorescein-streptavidin (Linker 2 62.5 nmol, streptavidin-fluorescein 73.5 pmol) it was 652. On fluorescein-streptavidin, the “Fluorescence emission detected” value was “Fluorescence emissions were detected”.
As to `O=C(CCCCC1SCC2NC(=O)NC21)NCCCCCC(=O)NCCCOCCOCCOCCCNC(=O)COCC(=O)NCCCOCCOCCOCCCNC(=O)CCCCC1SCC2NC(=O)NC21` (stereo not shown) [Linker 4], the Fluorescence emission on fluorescein-streptavidin (Linker 4 5 nmol, no streptavidin-fluorescein (control)) came out at 122; at fluorescein-streptavidin (Linker 4 5 nmol, streptavidin-fluorescein 100 pmol), 218. On fluorescein-streptavidin, the “Fluorescence emission detected” value is reported as “Fluorescence emissions were detected”.
With `O=C(CCCCCNC(=O)CCCCC1SCC2NC(=O)NC21)NCCCCCNC(=O)CCCCCNc1ccc([N+](=O)[O-])cc1[N+](=O)[O-]` (stereo not shown) [Linker 5], the “Increase in fluorescence emission” value in assay [1] (100-fold increase in linker 5 concentration) is 2.5 fold; in assay [1] (linker 5, 10-fold increase in fluorescein-anti-DNP concentration (5.3 to 53 pmol)), “approximately 3 fold”. Further, the Fluorescence emission in assay [1] ([5] 50.0 nmol, fluorescein-anti-DNP 266 pmol) stood at 197.62; in assay [1] ([5] 100.0 nmol, fluorescein-anti-DNP 266 pmol), 176.22; in assay [1] ([5] 200.0 nmol, fluorescein-anti-DNP 266 pmol), 172.66; in assay [1] ([5] 300.0 nmol, fluorescein-anti-DNP 266 pmol) it was 180.98; in assay [1] ([5] 400.0 nmol, fluorescein-anti-DNP 266 pmol), 225.98; in assay [1] ([5] 500.0 nmol, fluorescein-anti-DNP 266 pmol), 224.27. The Fluorescence emission is given as 211.7 in assay [1] ([5] 1000.0 nmol, fluorescein-anti-DNP 266 pmol); 351.7 in assay [1] ([5] 2000.0 nmol, fluorescein-anti-DNP 266 pmol); 369.58 in assay [1] ([5] 3000.0 nmol, fluorescein-anti-DNP 266 pmol); 516.83 in assay [1] ([5] 4000.0 nmol, fluorescein-anti-DNP 266 pmol); 543.9 in assay [1] ([5] 5000.0 nmol, fluorescein-anti-DNP 266 pmol); 76.392 in assay [1] (linker 5 50 nmol, [α-DNP] 0 pmol (linker only)). Besides, the Fluorescence emission worked out at 101.45 in assay [1] (linker 5 50 nmol, [α-DNP] 2.6 pmol); 109.82 in assay [1] (linker 5 50 nmol, [α-DNP] 5.3 pmol); 129.19 in assay [1] (linker 5 50 nmol, [α-DNP] 10.0 pmol); 137.9 in assay [1] (linker 5 50 nmol, [α-DNP] 16.0 pmol); 160.48 in assay [1] (linker 5 50 nmol, [α-DNP] 21.0 pmol); 204.54 in assay [1] (linker 5 50 nmol, [α-DNP] 27.0 pmol). The Fluorescence emission in assay [1] (linker 5 50 nmol, [α-DNP] 53.0 pmol) came to 306.3; in assay [1] (linker 5 50 nmol, [α-DNP] 106.0 pmol), 473.57; in assay [1] (linker 5 50 nmol, [α-DNP] 159.0 pmol), 615.29; in assay [1] (linker 5 50 nmol, [α-DNP] 212.0 pmol), 599.48; in assay [1] (linker 5 50 nmol, [α-DNP] 266.0 pmol) it was 561.46. The “Effect on binding capacity of fluorescein-anti-DNP” value in assay [1] (generic System 1) is listed as “significantly enhances the binding capacity”.
As to `O=C(CCCCCNc1ccc([N+](=O)[O-])cc1[N+](=O)[O-])NCCCOCCOCCOCCCNC(=O)COCC(=O)NCCCOCCOCCOCCCNC(=O)CCCCC1SCC2NC(=O)NC21` (stereo not shown) [Linker 7], the Fluorescence emission at fluorescein-streptavidin (Linker 7 5 nmol, no streptavidin-fluorescein (control)) came to 112; on fluorescein-streptavidin (Linker 7 5 nmol, streptavidin-fluorescein 266 pmol), 208. The “Fluorescence emission detected” value on fluorescein-streptavidin was “Fluorescence emissions were detected”.
`NCCCCCNC(=O)CCCC[C@@H]1SC[C@@H]2NC(=O)N[C@@H]21` [Linker B-1596, reference compound]: the “Fluorescence emission” value on fluorescein-streptavidin (pre-linker B-1596 50 nmol replacing linker 3, streptavidin-fluorescein 100 pmol) is listed as “remained at a level similar to reactions where no linker was used”.

These data come from patent US20020068367A1, “Linker and method for solid phase combinatorial synthesis” (priority 2000, published 2002).
